Results on 3 molecules are retold here after US5095011A, “Lyophilized cefepime dihydrochloride for parenteral use” (priority 1990, dated 1992).

Usually amount remaining stands for what is left of the initial amount, in per cent.

Where a name gives a salt, the structure may show the parent alone.

Data set [1] is described as follows: Stability of lyophilized amorphous BMY-28142 salts (dry, sealed vials). Format: physicochemical. As to conditions: for expected shelf life: extrapolated from stability tests; for remaining at 168 h: 1 week; for remaining at 336 h: 2 weeks; for remaining at 672 h: 4 weeks; for remaining at 1008 h: 6 weeks; for remaining at 2184 h: 13 weeks; for remaining at 6888 h: 41 weeks. The method, then: […] of BMY-28142 Zi was dissolved qs to 33 ml with 1.9 ml of 1N-HCl and water for injection (pH=2.0).
One ml portion (approximately 65 mg/ml) of the solution were placed into 10cc flint vials which were loosely stoppered with split lyphlization stoppers, frozen to -40° C. and lyphilized at a shelf temperature of 0° C. for 24 hours, then at 24° C. for 24 hours and at 32.2° C. for four hours. The vials were then sealed with aluminum closures and tested for stability at 56°, 45° and 37° C.

In the next data set the test system is various organisms. The following applies: U.S. Pat. No. 4,406,899; amorphous zwitterionic form; cited from earlier work.
The format of data set [2] is physicochemical. The following applies: water for injection. The method, then:
375 mg L(+)-Arginine for injection is reconstituted with 4.45 ml of sterile water for injection. The solution is taken up in a syringe and is added to a vial containing lyophilized BMY-28142-2HCl having an activity of 500 mg activity per vial. This solution produces a reconstituted solution suitable for injection which has an activity of about 100 mg BMY-28142 per milliliter.
Control of the amount of water used for dilution permitted the attainment of high concentrations up to 400 mg BMY-28142 per ml.

Where [3] appears, read: dry lyophilized solid, 45° C., second lot, separately prepared.

Turning to `CO/N=C(\C(=O)NC1C(=O)N2C(C(=O)[O-])=C(C[N+]3(C)CCCC3)CSC12)c1csc(N)n1` (stereo not drawn) [Di-HCl, 7-[α-(2-aminothiazol-4-yl)-α-(Z)-methoxyiminoacetamido]-3-[(1-methyl-1-pyrrolidinium)methyl]-3-cephem-4-carboxylate], the “stability of lyophile compared with other lyophilized amorphous salts” value in data set [1] was “unexpectedly more stable than the lyophilized, amorphous sesqui-H3 PO4, mono-H2 SO4 and mono-HCl salts”. Further, the expected shelf life entry in data set [1] (4° C.) is “at least 24 months”; in data set [1] (room temperature), “at least 12 months”. Also, the amount remaining at 168 h in data set [1] (dry lyophilized solid, 45° C.) came out at 99.8%; in data set [1] (setting [3]), 100%. The fraction remaining at 336 h in data set [1] (dry lyophilized solid, 45° C.) turned out to be 97.2%; in data set [1] (dry lyophilized solid, 56° C., second lot, separately prepared) it was 91.8%. The amount remaining at 672 h in data set [1] (dry lyophilized solid, 37° C.) was found to be 98.6%; in data set [1] (setting [3]) it was 92.5%. Further, the amount remaining at 4320 h in data set [1] (dry lyophilized solid, 6 months, 25° C., second lot, separately prepared) turned out to be 100%. In data set [1] (dry lyophilized solid, 37° C., second lot, separately prepared), the amount remaining at 1008 h stood at 97.2%. Moreover, the fraction remaining at 1344 h in data set [1] (dry lyophilized solid, 8 weeks, 56° C.) came out at 87%. Moreover, the share remaining at 2184 h came out at 95.5% in data set [1] (dry lyophilized solid, 37° C.) and 91.6% in data set [1] (dry lyophilized solid, 45° C.). Further, in data set [1] (dry lyophilized solid, 26 weeks, 45° C.), the share remaining at 4368 h was 87.7%. Moreover, the share remaining at 6888 h in data set [1] (dry lyophilized solid, 25° C.) came to 98.1%; in data set [1] (dry lyophilized solid, 37° C.) it was 91.7%. The amount remaining at 8736 h in data set [1] (dry lyophilized solid, 52 weeks, 25° C., second lot, separately prepared) stood at 100%.

Turning to `CO/N=C(\C(=O)N[C@@H]1C(=O)N2C(C(=O)[O-])=C(C[N+]3(C)CCCC3)CS[C@H]12)c1csc(N)n1` [BMY-28142, 7-[α-(2-aminothiazol-4-yl)-α-(Z)-methoxyiminocetamido]-3-[(1-methyl-1-pyrrolidinium)methyl]-3-cephem-4-carboxylate], the “antibacterial spectrum of activity” value in the data set with various organisms is “broader spectrum activity than ceftazidime and cefotaxime”. The “concentration attained on reconstitution” value in data set [2] is given as “up to 400 mg per ml”.

Consider `CO/N=C(\C(=O)NC1C(=O)N2C(C(=O)[O-])=C(C[N+]3(C)CCCC3)CSC12)c1csc(N)n1` (stereo not shown) [Sesqui-PO4], for which the amount remaining at 168 h in data set [1] (dry lyophilized solid, 56° C.) amounted to 75%. The fraction remaining at 1008 h in data set [1] (dry lyophilized solid, 37° C.) came to 79%.
